Results reported in patent US20230218654A1, “COMPOSITIONS AND METHODS FOR TREATING HYPERGLYCEMIA IN TYPE-2 DIABETES” (The Board of Regents of the university of Oklahoma, priority 2020, published 2023).
Entries after “also recorded” stand apart in the source; their conditions may differ.

What was measured:
high fat diet-fed mice = conditions: i.p. injection; cited from earlier work
male C57BL6/J mice = assay: Plasma/serum insulin and c-peptide after acute neddylation inhibitor treatment; type: in vivo
Method: Male C57BL6/J mice on chow diet were treated with 45 mg/kg TAS4464 via subcutaneous injection at 9 am. Mice were then fasted for 6 hours and serum insulin was measured. Blood samples were collected at 0 min and 120 min and used for insulin measurement (n=4). Left-hand bars are controls. Right-hand bars are TAS4464 treatments.
Male C57BL6/J mice on Western diet were treated with 15 mg/kg TAS4464 via subcutaneous injection at 9 am. Mice were then fasted for 6 hours and serum c-peptide were measured (n=5).
Male C57BL6/J mice on chow diet were treated with 60 mg/kg MLN4924 via subcutaneous injection at 9 am. Mice were then fasted for 6 hours and serum c-peptide were measured (n=8)
Aspartate aminotransferase (AST) and alanine aminotransferase (ALT) assay kits were purchased from Pointe Scientific (Canton, MI). Free fatty acid assay kit was purchased from Biovision Inc. (Milpitas, CA). Insulin ELISA kit was purchased from Crystal Chem Inc. (Elk Grove Village, IL).
A hyperinsulinemic-euglycemic clamp study was conducted in which obese mice were treated with vehicle or MLN4924.

[1] = tested on: male mice fed WD for 6 weeks; assay: Insulin tolerance test (ITT); type: in vivo; conditions: WD 6 weeks, 60 mg/kg SQ twice
Method: Male C7BL/6J mice were first fed WD for 6 weeks, and then treated with 60 mg/kg MLN6924 via subcutaneous (SQ) injection at 5 pm on day 1 and 9 am on day 2. Mice were fasted from 9 am to 3 pm on day 2 and insulin tolerance test was performed with 0.5 U/kg insulin i.p. injection (n=5). All results are expressed as mean ± SEM. “*”, p<0.05, vs. Vehicle group at the same time point. Unpaired Student’s t-test was used to calculate the p value.
Mice were treated with 2 doses of MLN4924 as described. After the second injection at 9 am, mice were fasted for 6 h from 9 am to 3 pm. Mice were injected intraperitoneally […] for PTT, and 0.5 U/kg insulin for ITT. Blood glucose was measured with a OneTouch Ultra glucose meter.

[2] = tested on: hepatic CRL (cullin) neddylation and hepatic insulin signaling; assay: Western blot of liver lysates after acute MLN4924 injection; type: in vivo; conditions: chow-fed mice, 6 h fast; for hepatic CRL (cullin) neddylation: 60 mg/kg at 5 pm day 1 and 9 am day 2 (IP or SQ)
Method: A. Western blot of liver lysates. Chow-fed male C56BL/6J mice were injected with 60 mg/kg MLN4924 or Vehicle (10% 2HO-β-cyclodextrin) at 5 pm on day 1 and 9 am on day 2, and sacrificed at 3 pm after 6 h fast. Upper arrow: Neddylated Cul3; Lower arrow: de-neddylated Cul3. Veh=vehicle; IP=intraperitoneal; SQ=subcutaneous.
FIG. 12A is a Western blot showing that MLN4924 inhibits liver cullin neddylation and increases IRS protein abundance and insulin signaling activation. Chow-fed male C56BL/6J mice were subcutaneously (SQ) injected 60 mg/kg MLN4924 or Veh (10 % 2HO-β-cyclodextrin) at 5 pm on day 1 and 9 am on day 2. Mice were fasted from 9 am to 3 pm on day 2 and sacrificed. Upper and lower arrows indicate neddylated cullin1 and cullin3 bands, respectively.
MLN4924 and TAS4464 were purchased from MedChemExpress (MCE, Monmouth Junction, NJ). For cell treatment, MLN4924 and TAS4464 were dissolved in DMSO. Cells were serum starved overnight and then treated with MLN4924, TAS4464 and/or insulin as indicated. For injection in mice, MLN4924 and TAS4464 were first dissolved in DMSO, which was further suspended in 10% (2-hydroxypropyl)-β-cyclodextrin (Sigma, St. Louis, MO). The final solution contains 1% DMSO. The subcutaneous injection volume is 200 µl/mouse.
Protein lysates were prepared in RIPA buffer containing 1% SDS and protease inhibitors on ice for 1 h followed by brief sonication. After centrifugation, supernatant was used for SDS-PAGE and immunoblotting.
WT male C57BL/6J mice were purchased from the Jackson Lab (Bar Harbor, ME). Western diet (TD. 88137, Envigo Inc. Indianapolis, IN) contains 42% fat calories and 0.2% cholesterol. Mice were housed in micro-isolator cages with corn cob bedding under 7 am - 7 pm light cycle and 7 pm -7 am dark cycle. MLN4924 was prepared in 10% 2-hydroxypropyl-b-cyclodextrin to a final concentration of 3 mg/ml. All mice were fasted for 6 h from 9 am to 3 pm before euthanasia. All animals received humane care according to the criteria outlined in the “Guide for the Care and Use of Laboratory Animals.” All animal protocols were approved by the Institutional Animal Care and Use Committee at the University of Kansas Medical Center and the University of Oklahoma Health Sciences Center.
Human normal livers (less than 5% steatosis) and histologically confirmed NASH livers were obtained from either the University of Kansas Liver Center or the Liver Tissue Cell Distribution System (LTCDS) at the University of Minnesota. Human and mouse tissue samples were homogenized in 1XRIPA buffer containing 1% SDS and protease inhibitors. After incubation on ice for 1 hour, the samples were centrifugation and supernatant was transferred to a new tube. The protein lysate was mixed with equal volume of 2X laemmli buffer and incubated at 95° C. for 5 minutes and used for SDS-PAGE and immunoblotting. ImageJ software (NIH) was used to determine band intensity.
To further explore the hepatic insulin sensitizing effect of neddylation inhibition in vivo, we administered MLN4924 to chow-fed mice twice via subcutaneous (SQ) injection (5 pm on day 1 and 9 am on day 2) and studied the acute effect of MLN4924. The dose of 60 mg/kg is in line with published literature. […] In addition to liver, skeletal muscle is another organ that quantitatively contribute to plasma glucose homeostasis.

SMILES: NS(=O)(=O)OC[C@@H]1C[C@@H](n2ccc3c(N[C@H]4CCc5ccccc54)ncnc32)C[C@@H]1O [MLN4924, ((1S,2S,4R)-4-(4-((1S)-2,3-dihydro-1H-inden-1-ylamino)-7H-pyrrolo[2,3-d]pyrimidin-7-yl)-2-hydroxycyclopentyl) methyl sulfamate]
- obesity (high fat diet-fed mice): significantly reduces obesity
- plasma insulin (male C57BL6/J mice; acute MLN4924 treatment): ~ 0.55 ng/ml
- serum c-peptide (male C57BL6/J mice; acute MLN4924 treatment): ~ 1.1 ng/ml
- serum c-peptide concentration (male C57BL6/J mice; chow diet, 60 mg/kg SQ at 9 am, 6 h fast): elevated serum c-peptide concentration
- plasma glucose in response to insulin after 1 h ([1]; 0.5 U/kg insulin i.p., similar in vehicle group): ~ 25 mg/dL
- basal glucose ([1]; 6 h fast): lower basal glucose
- hepatic CRL (cullin) neddylation ([2]; 60 mg/kg): effectively reduced hepatic CRL neddylation
- hepatic CRL (cullin) neddylation ([2]; listed as MLN4924, 60 mg/kg): effectively reduced hepatic cullin neddylation
- hepatic Y612 phosphorylated IRS1 ([2]; 60 mg/kg twice): increased Y612 phosphorylated IRS1
- hepatic IRS1 and IRS2 protein ([2]; 60 mg/kg twice, 60 mg/kg): rapidly increased hepatic IRS1 and IRS2; also recorded: increased hepatic IRS proteins
- hepatic phosphorylated AKT ([2]; 60 mg/kg twice, 60 mg/kg): higher phosphorylated AKT; also recorded: increased hepatic IRS proteins and AKT phosphorylation
